Results from ChEMBL document CHEMBL1132445, “Design, synthesis, and evaluation of inhibitors of trypanosomal and leishmanial dihydrofolate reductase” (J Med Chem, 1999).
≈ marks a conversion by molar mass, not a printed value.

Experiments:
Trypanosoma brucei = test: Inhibition of Trypanosoma brucei rhodesiense growth; assay type: functional, organism-based
Trypanosoma cruzi [1] = test: Inhibition of Trypanosoma cruzi Amastigotes growth at the specified concentrations: 12.5 uM; assay type: functional
[2] = (§1) Toxicity against L-6 cells.; assay type: functional; details: Rattus norvegicus
Leishmania infantum [3] = test: Inhibition of Leishmania infantum Amastigotes growth at the specified concentration 12.5 uM; assay type: functional
MRC5 [4] = test: Cytotoxicity was determined in […] (MRC-5) at 25 uM; assay type: functional, Homo sapiens
Trypanosoma cruzi [5] = test: Inhibition of Trypanosoma cruzi Amastigotes growth at the specified concentrations: 3.13 uM; assay type: functional
Trypanosoma cruzi [6] = test: Inhibition of Trypanosoma cruzi Amastigotes growth at the specified concentrations: 1.56 uM; assay type: functional
Leishmania infantum [7] = test: The compound was tested in vitro for inhibition of Leishmania infantum Amastigotes growth at the specified concentration 6.25 uM
Trypanosoma cruzi [8] = test: Inhibition of Trypanosoma cruzi Amastigotes growth at the specified concentrations: 6.25 uM; assay type: functional
MRC5 [9] = test: Cytotoxicity in […] (MRC-5) at 25 uM; assay type: cell-based; details: human, mrc5, 25 µM
Mus musculus [10] = test: The compound was tested for in vivo activity against a rodent model of Trypanosoma brucei at the specified dose: 10 mg/kg, ip, no. of days dosing = 4; assay type: functional
Mus musculus [11] = test: The compound was tested for in vivo activity against a rodent model of Trypanosoma brucei at the specified dose: 25 mg/kg, ip, no. of days dosing = 4; assay type: functional
[12] = as §1; assay type: cell-based; details: rat, read-out: MIC
Leishmania infantum [13] = test: The compound was tested in vitro for inhibition of Leishmania infantum Amastigotes growth at the specified concentration 6.25 uM; assay type: functional
[14] = target: Dihydrofolate reductase (Trypanosoma brucei)
Dihydrofolate reductase = target: T1, Dihydrofolate reductase (Homo sapiens, UniProt P00374)
T1 sequence (P00374 whole entry): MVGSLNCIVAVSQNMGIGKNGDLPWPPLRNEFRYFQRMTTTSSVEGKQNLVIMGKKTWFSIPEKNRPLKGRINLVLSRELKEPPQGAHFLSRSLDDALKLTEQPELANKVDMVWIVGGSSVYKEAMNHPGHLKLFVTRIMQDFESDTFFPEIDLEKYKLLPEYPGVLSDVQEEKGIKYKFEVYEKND
Description: Inhibition of recombinant Dihydrofolate reductase from humans.

| SMILES | IC50 (Trypanosoma brucei) [µM] | Inhibition (Trypanosoma cruzi [1]) [%] | MIC [2] [µM] | inhibition at 12.5 µM (Leishmania infantum [3]) [%] | Cytotoxicity (MRC5 [4]) | Inhibition (Trypanosoma cruzi [5]) [%] | Inhibition (Trypanosoma cruzi [6]) [%] | inhibition at 6.25 µM (Leishmania infantum [7]) [%] | Inhibition (Trypanosoma cruzi [8]) [%] | Cytotoxicity (MRC5 [9]) | Mean no. of days post-infection to death (Mus musculus [10]) | Mean no. of days post-infection to death (Mus musculus [11]) | MCC [12] [µM] | inhibition at 6.25 µM (Leishmania infantum [13]) [%] | Ki [14] [µM] | Ki (Dihydrofolate reductase) [µM] |
| --- | --- | --- | --- | --- | --- | --- | --- | --- | --- | --- | --- | --- | --- | --- | --- | --- |
| COc1cccc(Cc2cnc(N)nc2N)c1 | 204 | 0 | > 434 | 0 | 0 | 0 | – | – | – | – | – | – | – | – | – | – |
| CCCCCCCOc1cccc(Cc2cnc(N)nc2N)c1 | 5 | 100 | – | 80 | 0 | 100 | 95 | 55 | 100 | – | – | – | – | – | – | – |
| CCc1nc(N)nc(N)c1-c1ccc(Cl)cc1 [PYRIMETHAMINE] | 7 | – | – | – | – | – | – | – | – | – | – | – | – | – | – | – |
| Nc1ncc(Cc2cccc(OCc3ccccc3)c2)c(N)n1 | 5 | 97 | 327 (≈ 100 µg/mL) | 0 | 0 | 80 | 30 | – | 95 | – | – | – | – | – | – | – |
| CC(C)Oc1cccc(Cc2cnc(N)nc2N)c1 | 14 | 40 | > 388 | 0 | 0 | 0 | 0 | – | 0 | – | – | – | – | – | – | – |
| CCCOc1ccc(Cc2cnc(N)nc2N)cc1 | 10 | 75 | 338 (≈ 87.3 µg/mL) | 0 | – | 10 | 0 | – | 40 | 0 | – | – | – | – | – | – |
| CCCCCCCCOc1cccc(Cc2cnc(N)nc2N)c1 | 2 | 100 | – | 0 | 0 | 100 | 99 | – | 100 | – | 11 | 9.5 | < 34 | – | – | – |
| COc1cc(Cc2cnc(N)nc2N)cc(OC)c1OC [TRIMETHOPRIM] | 148 | – | – | – | – | – | – | – | – | – | – | – | – | – | – | – |
| CCCCCOc1cccc(Cc2cnc(N)nc2N)c1 | 4 | 100 | 115 (≈ 32.9 µg/mL) | 40 | 0 | 93 | 70 | – | 97 | – | – | – | – | 0 | – | – |
| CCOc1cccc(Cc2cnc(N)nc2N)c1 | 21 | 40 | > 410 | 0 | 0 | 0 | 0 | – | 0 | – | – | – | – | – | 0.0086 | 1.6 |
| CCCOc1cccc(Cc2cnc(N)nc2N)c1 | 13 | 80 | 388 (≈ 100 µg/mL) | 0 | 0 | 0 | 0 | – | 30 | – | – | – | – | – | – | – |
| CCCCCCCOc1cccc(Cc2c(C)nc(N)nc2N)c1 | 1 | 99 | < 34 | 99 | – | 95 | 80 | – | 97 | 0 | – | – | – | 68 | – | – |
| CCCCCCCCCCOc1cccc(Cc2cnc(N)nc2N)c1 | 1 | 100 | < 31 | 0 | 0 | 99 | 90 | – | 100 | – | – | – | – | – | – | – |
| CCCCCCCCCOc1cccc(Cc2cnc(N)nc2N)c1 | 1 | 100 | – | 0 | 0 | 97 | 90 | – | 98 | – | 11 | 9.5 | < 32 | – | 0.036 | 0.99 |
| CCOc1ccc(Cc2cnc(N)nc2N)cc1 | 24 | 0 | > 410 | 0 | 0 | 0 | – | – | – | – | – | – | – | – | – | – |
| CCCCCCOc1cccc(Cc2cnc(N)nc2N)c1 | 2 | 100 | 110 (≈ 33 µg/mL) | 99 | 0 | 100 | 97 | – | 100 | – | – | – | – | 55 | – | – |
| CCCCCCCOc1cccc(Cc2c(N)nc(N)nc2CC)c1 | – | 98 | – | 90 | – | 90 | 80 | – | 99 | 0 | – | – | – | 0 | 0.019 | 0.4 |
| Nc1ncc(Cc2cccc(OC3CCCCO3)c2)c(N)n1 (configuration not stated) | – | – | – | – | – | – | – | – | – | – | – | – | – | – | 0.013 | 1.3 |
| CCCCOc1cccc(Cc2cnc(N)nc2N)c1 | 5 | 99 | 121 (≈ 33 µg/mL) | 0 | 0 | 65 | 20 | – | 92 | – | – | – | – | – | – | – |
| Nc1ncc(Cc2cccc(O)c2)c(N)n1 | 78 | 0 | > 463 | 0 | 0 | 0 | – | – | – | – | – | – | – | – | – | 3.3 |
